Data on one compound can be found in publication PMC5831858, “Pharmacological characterisation of CR6086, a potent prostaglandin E2 receptor 4 antagonist, as a new potential disease-modifying anti-rheumatic drug” (Arthritis Research & Therapy, 2018).

One experiment concerns the target T1, human EP4 receptor (Homo sapiens, UniProt P35408).
T1 construct: expressed in transfected cells
The experiment can be described thus: AlphaScreen cAMP functional assay, PGE2-stimulated HEK293 membranes. It is filed as biochemical. On the procedure: In studies of CR6086 as a functional receptor antagonist, we took advantage of the evidence that activated EP4 receptors couple with Gs proteins to stimulate adenylyl cyclase and increase cyclic adenosine monophosphate (cAMP) cellular levels. Cell membranes prepared from the HEK293 cell line were suspended in 1 ml of stimulation buffer (Hanks’ balanced salt solution 1× + BSA 0.1% + 3-isobutyl-1-methylxanthine 0.5 mM + HEPES 5 mM + MgCl2 10 mM + guanosine triphosphate 1 nM + guanosine diphosphate 10 μM + adenosine triphosphate 100 μM, pH 7.4). The AlphaScreen cAMP functional assay (PerkinElmer) was used according to the manufacturer’s instructions. Because AlphaScreen beads are light-sensitive, the cAMP assay was performed under subdued laboratory lighting, and any incubation involving the beads was carried out in the dark. The assay is based on the competition between endogenous cAMP and exogenously added biotinylated cAMP. The capture of cAMP is achieved by using a specific antibody conjugated to […]. Cell membranes were dispensed into white 384-well microplates at a final concentration of 1 μg per well. […] After 1 h of incubation, the plate was read using the EnVision platform (PerkinElmer) to determine the cAMP level (excitation 680 nm, emission 520 or 620 nm). […]
(In general: In Alpha technology, singlet oxygen from a donor bead excites a nearby acceptor bead.)

A further experiment concerns IL-17 release. The experiment can be described thus: IL-17 release from human Th17 cells. Type of experiment: cell-based. The note with it: Homo sapiens; at 1 μM; 48 and 72 h. As for the experimental part: PBMCs were purified using Histopaque. CD4^+CD45^+ naive T cells were indirectly selected in a magnetic field (MACS; Miltenyi Biotec). Purified CD4^+ cells were subsequently cultured for 7 days in differentiation medium (RPMI 1640 + FBS 10%, IL-6 30 ng/ml, transforming growth factor [TGF]-β 2.25 ng/ml, IL-23 30 ng/ml, IL-1β 20 ng/ml, anti-interferon (IFN)-γ 1 ng/ml and anti-IL-4 2.5 ng/ml). Th17 cell expansion was stimulated by addition of anti-CD3/[…]anti-CD28 beads to the medium with a cell-to-beads ratio of 1:2. Th17 cells were stimulated with IL-6 30 ng/ml, TGF-β 2.25 ng/ml, IL-23 30 ng/ml, IL-1β 20 ng/ml and PGE2 10 nM for 48 h in the presence of CR6086 (0.03–10 μM) or naproxen (1–10 μM). IL-17 release was measured by ELISA (Abcam, Cambridge, UK).

The target of a further experiment is rat EP4 receptor (Rattus norvegicus, UniProt P43114). The experiment can be described thus: EP4 receptor occupancy estimation from plasma exposure. The note with it: 3 mg/kg; repeated doses. On the procedure:
CR6086 concentrations in rat plasma were determined by high-performance liquid chromatography (Agilent 1200 series; Agilent Technologies, Santa Clara, CA, USA) coupled with a triple-quadrupole mass spectrometer (API 4000 QTRAP; SCIEX, Concord, ON, Canada). A ZORBAX SB-C18 2.0 × 50-mm, 3.5-μm column (Agilent Technologies) in isocratic conditions was used with mobile phase 0.1% formic acid in water/acetonitrile (68:32 vol/vol). The method was linear within the dynamic range 1.0–10,000 ng/ml (lower to upper limit of quantification). CR6086 plasma protein binding was determined in the 0.2–200 μM concentration range using [^14C]CR6086 and equilibrium dialysis. EP4 receptor occupancy (RO) was calculated on the basis of CR6086 concentrations according to the following formula: RO%=Cave/Cave+Ki×100,
An estimation of the receptor occupancy was attempted in the dose range investigated in CIA rats. Because the CIA experiments were conducted after repeated doses, whereas the exposure shown above was determined after a single dose of CR6086, receptor occupancy estimation in the CIA rats took into consideration the accumulation ratio of CR6086 after repeated doses averaging 1.19 in male rats. […] Thus, in our experiments, clinically relevant effects in the CIA rat model were observed starting from approximately 50% EP4 receptor occupancy. […]

For a further experiment, the target named is A1 (Homo sapiens, UniProt P30542). The experiment can be described thus: Adenosine receptor A1 binding. As to conditions: [^3H]DPCPX, Human recombinant CHO cells, read-out: CR6086 Activity at 10µM.
Another experiment deals with β1 (Homo sapiens, UniProt P08588). The experiment can be described thus: Adrenergic receptor β1 binding. The note with it: [^3H](-)CGP 12177, Human recombinant HEK-293 cells, read-out: CR6086 Activity at 10µM.
A further experiment relates to P2Y. As to the kind of experiment: Purinergic receptor P2Y binding. The note with it: [^35S]dATPαS, Rat cerebral cortex.
A further experiment has as its system PCP. As to the kind of experiment: PCP receptor binding. As to conditions: [^3H]TCP, Rat cerebral cortex.
The target in another experiment is κ (KOP) (Homo sapiens, UniProt P41145). The experiment can be described thus: Opioid receptor κ (KOP) binding. The note with it: [^3H]U 69593, Human recombinant CHO cells, read-out: CR6086 Activity at 10µM.
In a further experiment the target is NOP (ORL1) (Homo sapiens, UniProt P41146). The experiment can be described thus: Opioid receptor NOP (ORL1) binding. The note with it: [^3H]nociceptin, Human recombinant HEK-293 cells, read-out: CR6086 Activity at 10µM.

pIC50: −log10 of the molar value.

T1 sequence (P35408 whole entry): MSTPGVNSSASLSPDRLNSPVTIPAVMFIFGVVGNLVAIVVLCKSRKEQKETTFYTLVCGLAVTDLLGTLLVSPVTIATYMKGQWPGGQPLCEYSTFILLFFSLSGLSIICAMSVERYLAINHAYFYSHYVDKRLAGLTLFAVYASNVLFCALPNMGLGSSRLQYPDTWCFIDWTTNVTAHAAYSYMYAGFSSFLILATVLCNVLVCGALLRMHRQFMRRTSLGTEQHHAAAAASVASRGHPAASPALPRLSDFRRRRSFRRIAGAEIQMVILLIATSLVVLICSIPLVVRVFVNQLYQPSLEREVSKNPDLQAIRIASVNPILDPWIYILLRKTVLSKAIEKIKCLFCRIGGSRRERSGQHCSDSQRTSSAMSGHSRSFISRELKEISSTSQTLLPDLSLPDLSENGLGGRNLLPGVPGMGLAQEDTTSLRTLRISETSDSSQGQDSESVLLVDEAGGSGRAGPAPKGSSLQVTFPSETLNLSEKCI
κ (KOP), sequence (P41145 whole entry): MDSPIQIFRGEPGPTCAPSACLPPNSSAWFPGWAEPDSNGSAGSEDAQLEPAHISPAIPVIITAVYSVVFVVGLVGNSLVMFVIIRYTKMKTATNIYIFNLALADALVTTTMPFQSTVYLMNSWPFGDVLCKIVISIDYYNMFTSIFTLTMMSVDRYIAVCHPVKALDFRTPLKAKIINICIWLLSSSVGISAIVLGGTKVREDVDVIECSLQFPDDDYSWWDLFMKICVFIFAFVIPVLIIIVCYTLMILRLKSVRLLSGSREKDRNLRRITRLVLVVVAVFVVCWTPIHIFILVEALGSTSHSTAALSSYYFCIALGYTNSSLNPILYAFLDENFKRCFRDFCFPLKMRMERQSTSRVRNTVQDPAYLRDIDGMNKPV
β1, sequence (P08588 whole entry): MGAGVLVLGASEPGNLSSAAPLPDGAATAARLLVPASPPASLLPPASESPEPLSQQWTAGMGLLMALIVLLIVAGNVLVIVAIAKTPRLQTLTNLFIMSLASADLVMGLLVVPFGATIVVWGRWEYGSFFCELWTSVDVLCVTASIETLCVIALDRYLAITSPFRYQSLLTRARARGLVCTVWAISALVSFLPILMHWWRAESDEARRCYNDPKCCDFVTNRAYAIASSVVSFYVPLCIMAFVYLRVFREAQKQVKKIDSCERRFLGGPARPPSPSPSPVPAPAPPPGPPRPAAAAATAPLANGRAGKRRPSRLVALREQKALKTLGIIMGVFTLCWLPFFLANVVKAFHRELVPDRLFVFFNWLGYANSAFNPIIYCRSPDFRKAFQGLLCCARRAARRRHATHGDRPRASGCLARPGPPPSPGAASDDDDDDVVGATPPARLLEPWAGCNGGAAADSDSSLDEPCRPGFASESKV
rat EP4 receptor, sequence (P43114 whole entry): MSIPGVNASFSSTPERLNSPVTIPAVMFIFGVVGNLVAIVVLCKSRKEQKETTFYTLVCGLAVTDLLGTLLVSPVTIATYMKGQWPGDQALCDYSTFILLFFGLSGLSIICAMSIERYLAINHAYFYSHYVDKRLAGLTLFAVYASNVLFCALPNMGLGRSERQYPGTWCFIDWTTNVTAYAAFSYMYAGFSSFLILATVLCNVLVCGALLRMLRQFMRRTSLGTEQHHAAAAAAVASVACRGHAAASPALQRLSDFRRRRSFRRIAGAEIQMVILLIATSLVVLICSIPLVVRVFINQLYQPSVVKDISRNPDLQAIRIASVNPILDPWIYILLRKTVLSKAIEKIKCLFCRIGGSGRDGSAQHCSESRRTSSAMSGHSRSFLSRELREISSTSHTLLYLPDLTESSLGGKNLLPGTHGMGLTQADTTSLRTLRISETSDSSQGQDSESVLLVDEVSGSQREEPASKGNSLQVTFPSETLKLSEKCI
NOP (ORL1), sequence (P41146 whole entry): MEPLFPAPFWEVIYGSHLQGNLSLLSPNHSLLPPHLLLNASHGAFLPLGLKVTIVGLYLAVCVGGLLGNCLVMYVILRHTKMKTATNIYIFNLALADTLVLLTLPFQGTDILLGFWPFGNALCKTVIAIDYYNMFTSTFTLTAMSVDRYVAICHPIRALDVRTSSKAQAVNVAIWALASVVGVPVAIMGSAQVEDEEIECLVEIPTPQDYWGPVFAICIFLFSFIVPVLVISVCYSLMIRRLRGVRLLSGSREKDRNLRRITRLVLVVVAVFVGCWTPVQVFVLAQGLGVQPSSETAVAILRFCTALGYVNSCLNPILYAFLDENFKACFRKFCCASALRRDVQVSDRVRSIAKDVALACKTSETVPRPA
A1, sequence (P30542 whole entry): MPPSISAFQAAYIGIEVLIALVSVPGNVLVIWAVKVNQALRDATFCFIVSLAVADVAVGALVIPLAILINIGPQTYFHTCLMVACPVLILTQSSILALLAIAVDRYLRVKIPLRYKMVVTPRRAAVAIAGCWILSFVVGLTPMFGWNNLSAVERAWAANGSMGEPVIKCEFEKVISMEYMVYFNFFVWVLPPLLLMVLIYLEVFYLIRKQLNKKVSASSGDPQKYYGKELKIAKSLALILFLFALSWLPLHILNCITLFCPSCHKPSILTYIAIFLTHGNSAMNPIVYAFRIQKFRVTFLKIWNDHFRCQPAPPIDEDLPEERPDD

On to `O=C([O-])c1ccc(C2(NC(=O)[C@H]3CC4(CCN3Cc3ccc(C(F)(F)F)cc3)CC4)CC2)cc1.[Na+]` [CR6086, Sodium (R)-4-(1-(6-(4-(trifluoromethyl)benzyl)-6-azaspiro[2.5]octane-5-carboxamido)cyclopropyl)benzoate], for which the pIC50 at human EP4 receptor (3 nM PGE2, HEK293 membranes, read-out: IC50 on PGE2-stimulated cAMP production) was 7.66. The functional behaviour entry on human EP4 receptor (cAMP functional assays) is recorded as “pure EP4 antagonist”. Also, the inhibition at 1 µM in the experiment with IL-17 release came out at 100%. The “estimated EP4 receptor occupancy” value at rat EP4 receptor is listed as “approximately 50%”. The inhibition at 10 µM on A1, on β1, at κ (KOP) and at NOP (ORL1) was below 20% each time. The “CR6086 Activity at 10µM” value with P2Y and in the experiment with PCP was “IN (IN = < 20% displacement or inhibition (all tables))” in each case.

For orientation: pIC50 means the IC50 on a negative log10 scale, so that one unit is a factor of ten.
